Assay results taken from US20250166176A1, “METHODS AND MATERIALS FOR IMAGING ADIPOSE TISSUE” (CellSight Technologies Inc., priority 2022, published 2025).

How the values were obtained:
Type in all cases: in vivo
[1] = system: BAT and marrow adipose tissue; assay: [18F]F-AraG PET imaging after chronic dosing with BRL37344; settings: mice, 3 days+1 h prior to imaging
iBAT = assay: [18F]F-AraG PET imaging of iBAT in mice with GBM tumors; settings: one GBM mouse with highest neuroinflammation
Text: During our studies into the utility of ^18F-AraG in assessing intracranial T cell infiltration in glioblastoma multiforme (GBM) we made the unexpected and surprising discovery that ^18F-AraG can also image and/or assess the activation of adipose tissue (FIG. 2). Adipose, or fat, tissue (AT) was once considered an inert tissue that primarily existed to store lipids, and was not historically recognized as an important organ in the regulation and maintenance of health. With the rise of obesity and more rigorous research, AT is now recognized as a highly complex metabolic organ involved in a host of important physiological functions, including glucose homeostasis and a multitude of endocrine capabilities. […] The study of AT can provide useful insights in developing strategies to combat these highly prevalent metabolic diseases.
[^18F]F-AraG ability to track stimulated adipocytes allowed observation of activated iBAT in mice with bioluminescently-tagged GBM tumors. The activation occurred at different time points and varied in intensity.

intrascapular BAT (iBAT) = assay: [18F]F-AraG and FDG PET imaging of BAT in mice treated with BRL37344, insulin or vehicle

| SMILES | effect of chronic dosing on [18F]F-AraG signal (in words) [1] | iBAT [18F]F-AraG signal (iBAT; OnTx3) [% ID/g] | iBAT [18F]F-AraG signal (iBAT; PreTx) [% ID/g] | [18F]F-AraG uptake in iBAT (intrascapular BAT (iBAT); control animals) [% ID/g] | [18F]F-AraG uptake in iBAT (intrascapular BAT (iBAT); insulin-treated mice) [% ID/g] | accumulation of [18F]F-AraG in intrascapular BAT (iBAT) (intrascapular BAT (iBAT); mice, BRL37344 administered one hour prior to imaging) [% ID/g] |
| --- | --- | --- | --- | --- | --- | --- |
| C[C@H](Cc1ccc(OCC(=O)O)cc1)NC[C@H](O)c1cccc(Cl)c1 [BRL37344] | increase in [^18F]F-AraG signal not only in the classical, intrascapular BAT. but also in lumbar spinal cord and proximal tibia | – | – | – | – | – |
| Nc1nc2c(ncn2[C@@H]2O[C@H](CO)[C@@H](O)[C@@H]2[18F])c(=O)[nH]1 [[^18F]F-AraG, [18F]-F-arabinofuranosyl guanine] | – | 14.92 | 1.70 | 4.11±0.76 | 3.36±0.62 | 10.98±1.64 |
